Values after ≈ are worked out from the molar mass of the structure shown.

The subject of one assay is Staphylococcus aureus. The assay can be described thus: microbe, parasite or virus in culture. As to conditions: ATCC 43300, 18 h, ASSAY_TEST Inhibition of Bacterial Growth, detection method Absorption (OD600), MEDIA CAMHB, plate type 384well, NBS, CORNING #3640.
In a further assay the test system is Escherichia coli. The assay can be described thus: microbe, parasite or virus in culture. As to conditions: ATCC 25922, 18 h, ASSAY_TEST Inhibition of Bacterial Growth, detection method Absorption (OD600), MEDIA CAMHB, plate type 384well, NBS, CORNING #3640.
The subject of the next assay is Klebsiella pneumoniae. The experiment in a line: microbe, parasite or virus in culture. Particulars: ATCC 700603, 18 h, ASSAY_TEST Inhibition of Bacterial Growth, detection method Absorption (OD600), MEDIA CAMHB, plate type 384well, NBS, CORNING #3640.
The test system of another assay is Candida albicans. The assay can be described thus: microbe, parasite or virus in culture. Particulars: ATCC 90028, ASSAY_TEST Inhibition of Fungal Growth, detection method Absorption (OD530), plate type 384well, NBS, CORNING #3640.
The subject of another assay is Pseudomonas aeruginosa. The experiment in a line: microbe, parasite or virus in culture. As to conditions: ATCC 27853, 18 h, ASSAY_TEST Inhibition of Bacterial Growth, detection method Absorption (OD600), MEDIA CAMHB, plate type 384well, NBS, CORNING #3640.
For another assay, the system named is Acinetobacter baumannii. The experiment in a line: microbe, parasite or virus in culture. Particulars: ATCC 19606, 18 h, ASSAY_TEST Inhibition of Bacterial Growth, detection method Absorption (OD600), MEDIA CAMHB, plate type 384well, NBS, CORNING #3640.
In another assay the test system is HEK293. The assay can be described thus: cells. Particulars: Homo sapiens, ATCC CRL1573, HEK293; ASSAY_TEST Inhibition of Cell Viability; detection method Resazurin; Fluorescence (ex560/em590); MEDIA DMEM with 10% FBS; plate type 384well; TC; CORNING #3712; time 18 hr. It counts as functional.

Description for Acinetobacter baumannii: Antibacterial activity against Acinetobacter baumannii ATCC 19606 (CO-ADD:GN_034); MIC in CAMBH media using NBS plates, by OD600
Description for Candida albicans: Antifungal activity against Candida albicans ATCC 90028 (CO-ADD:FG_001); MIC in YNB media using NBS plates, by OD630
Description for Cryptococcus neoformans: Antifungal activity against Cryptococcus neoformans H99 ATCC 208821 (CO-ADD:FG_002); MIC in YNB media using NBS plates, by Resazurin OD(600-570)
Description for Escherichia coli: Antibacterial activity against Escherichia coli ATCC 25922 (CO-ADD:GN_001); MIC in CAMBH media using NBS plates, by OD(600)
Description for Klebsiella pneumoniae: Antibacterial activity against Klebsiella pneumoniae MDR ATCC 70063 (CO-ADD:GN_003); MIC in CAMBH media using NBS plates, by OD(600)
Description for Pseudomonas aeruginosa: Antibacterial activity against Pseudomonas aeruginosa ATCC 27853 (CO-ADD:GN_042); MIC in CAMBH media using NBS plates, by OD(600)
Description for Staphylococcus aureus: Antibacterial activity against Staphylococcus aureus MRSA ATCC 43300 (CO-ADD:GP_020); MIC in CAMBH media, using NBS plates, by OD(600)

In the case of `CCN(CC)c1ccc(C(=C2C=CC(=[N+](CC)CC)C=C2)c2ccc(N(CC)CC)cc2)cc1`, the MIC in the assay with Staphylococcus aureus was at most 0.0781 µM; in the assay on Escherichia coli it was above 10 µM; against Klebsiella pneumoniae, above 10 µM; against Candida albicans, at most 0.0781 µM; in the assay on Pseudomonas aeruginosa, 2.5 µM; against Acinetobacter baumannii, above 10 µM. The MIC in the assay on Cryptococcus neoformans stood at 1.25 µM. For the same molecule, in the assay with HEK293, the CC50 turned out to be 1.47 µM.
On to `CCCCOc1ccc(/N=N\c2ccc(N)nc2N)cn1`, for which the MIC against Staphylococcus aureus, with Escherichia coli, against Klebsiella pneumoniae, in the assay on Candida albicans, with Pseudomonas aeruginosa and in the assay with Acinetobacter baumannii was above 10 µM throughout. The molecule further yielded an MIC in the assay with Cryptococcus neoformans above 10 µM. Moreover, the CC50 with HEK293 is above 10 µM.
`O=[N+]([O-])c1oc2ccc3ccccc3c2c1CCO`: the MIC was 2.5 µM (≈ 0.643 µg/mL) against Staphylococcus aureus; 5 µM (≈ 1.29 µg/mL) with Escherichia coli; above 10 µM in the assay with Klebsiella pneumoniae; above 10 µM in the assay with Candida albicans; above 10 µM in the assay on Pseudomonas aeruginosa; above 10 µM with Acinetobacter baumannii. The same molecule had an MIC in the assay with Cryptococcus neoformans above 10 µM. In the assay with HEK293, this molecule had a CC50 of 1.13 µM.
As for `CCOC(=O)/C(C#N)=C1\SS/C(=C(/C#N)C(=O)OCC)S1`, the MIC in the assay on Staphylococcus aureus, with Escherichia coli, in the assay on Klebsiella pneumoniae, against Candida albicans, in the assay with Pseudomonas aeruginosa and against Acinetobacter baumannii was above 10 µM throughout. In the assay on Cryptococcus neoformans, this molecule registered an MIC above 10 µM. This molecule also returned a CC50 with HEK293 above 10 µM.
In the case of `O=C(O)C(=O)Nc1nc[nH]n1`, the MIC against Staphylococcus aureus, with Escherichia coli, in the assay with Klebsiella pneumoniae, against Candida albicans, against Pseudomonas aeruginosa and against Acinetobacter baumannii was above 10 µM throughout. Further, the MIC against Cryptococcus neoformans was above 10 µM. In the assay with HEK293, this molecule displayed a half-maximal cytotoxic concentration (CC50) above 10 µM.
Regarding `Cc1ccccc1NC(=O)NCCN1CC1`, the MIC against Staphylococcus aureus, in the assay with Escherichia coli, in the assay on Klebsiella pneumoniae, in the assay with Candida albicans, in the assay with Pseudomonas aeruginosa and against Acinetobacter baumannii was above 10 µM each time. Moreover, in the assay on Cryptococcus neoformans, the MIC is above 10 µM. The molecule also showed a CC50 in the assay with HEK293 above 10 µM.
On to `C1C2CC3C1C3/C2=N\N=C1/C2CC3C(C2)C13`, for which the MIC with Staphylococcus aureus, with Escherichia coli, in the assay with Klebsiella pneumoniae, in the assay with Candida albicans, against Pseudomonas aeruginosa and with Acinetobacter baumannii was above 10 µM in each case. The molecule further gave an MIC with Cryptococcus neoformans above 10 µM. Further, the CC50 in the assay with HEK293 was above 10 µM.
As to `C=C(C)C(=O)Oc1ccc(/N=N/c2ccc(C)cc2)ccc1=O`, the MIC is above 10 µM against Staphylococcus aureus; above 10 µM in the assay on Escherichia coli; above 10 µM with Klebsiella pneumoniae; 10 µM (≈ 3.08 µg/mL) with Candida albicans; above 10 µM in the assay with Pseudomonas aeruginosa; above 10 µM in the assay with Acinetobacter baumannii. Besides, in the assay on Cryptococcus neoformans, the MIC was above 10 µM. For the same molecule, the CC50 in the assay on HEK293 was above 10 µM.
In the case of `O=Nc1c(-c2cccc([N+](=O)[O-])c2)nc2ncccn12`, the MIC is 0.312 µM (≈ 0.0841 µg/mL) against Staphylococcus aureus; above 10 µM against Escherichia coli; above 10 µM in the assay with Klebsiella pneumoniae; 0.625 µM (≈ 0.168 µg/mL) in the assay on Candida albicans; above 10 µM in the assay on Pseudomonas aeruginosa; above 10 µM in the assay on Acinetobacter baumannii. The same molecule yielded an MIC against Cryptococcus neoformans of 2.5 µM (≈ 0.673 µg/mL). This molecule gave a CC50 in the assay on HEK293 above 10 µM.
`N=C(Nc1nc(-c2ccccn2)cc2ccccc12)c1ccccn1`: the MIC in the assay with Staphylococcus aureus is above 10 µM; in the assay on Escherichia coli, above 10 µM; in the assay with Klebsiella pneumoniae it was above 10 µM; against Candida albicans, 5 µM (≈ 1.63 µg/mL); against Pseudomonas aeruginosa, above 10 µM; in the assay with Acinetobacter baumannii, above 10 µM. Further, in the assay on Cryptococcus neoformans, the MIC was 10 µM (≈ 3.25 µg/mL). The CC50 in the assay on HEK293 was above 10 µM.
With `Cc1ccc2ccc(C#N)cc2c1O`, the MIC in the assay on Staphylococcus aureus, against Escherichia coli, with Klebsiella pneumoniae, against Candida albicans, against Pseudomonas aeruginosa and in the assay with Acinetobacter baumannii was above 10 µM throughout. Further, in the assay with Cryptococcus neoformans, the MIC was above 10 µM. Further, in the assay on HEK293, the CC50 was above 10 µM.
For the molecule `Clc1ccc(SCNc2ccccc2Cl)cc1`, the MIC in the assay with Staphylococcus aureus, in the assay with Escherichia coli, in the assay with Klebsiella pneumoniae, against Candida albicans, against Pseudomonas aeruginosa and in the assay on Acinetobacter baumannii was above 10 µM in each case. This molecule registered an MIC against Cryptococcus neoformans above 10 µM. Further, the half-maximal cytotoxic concentration (CC50) with HEK293 was above 10 µM.
In the case of `COC1CC(C)C(OC)c2cc(O)cc(c2O)NC(=O)/C(C)=C/C=C\C(C)C(OC(N)=O)/C(C)=C\C(C)C1OC` (configuration not stated), the MIC with Staphylococcus aureus, in the assay on Escherichia coli, in the assay on Klebsiella pneumoniae, in the assay on Candida albicans, against Pseudomonas aeruginosa and with Acinetobacter baumannii was above 10 µM throughout. For the same molecule, in the assay with Cryptococcus neoformans, the MIC was above 10 µM. The midpoint of cytotoxicity in the assay with HEK293, the CC50, lay at 1.09 µM.
Regarding `c1ccc2nc(OCCN3CC3)ccc2c1`, the MIC with Staphylococcus aureus, in the assay with Escherichia coli, against Klebsiella pneumoniae, in the assay with Candida albicans, against Pseudomonas aeruginosa and with Acinetobacter baumannii was above 10 µM each time. Besides, the MIC in the assay with Cryptococcus neoformans was above 10 µM. Moreover, in the assay with HEK293, the CC50 was above 10 µM.
Regarding `NC(=S)c1cn(C2OC(CO)C(O)C2O)c2ncnc(N)c12` (configuration not stated), the MIC with Staphylococcus aureus is above 10 µM; against Escherichia coli, above 10 µM; with Klebsiella pneumoniae it was above 10 µM; against Candida albicans, 10 µM (≈ 3.25 µg/mL); against Pseudomonas aeruginosa it was above 10 µM; against Acinetobacter baumannii, above 10 µM. The same molecule registered an MIC against Cryptococcus neoformans above 10 µM. The molecule further displayed a CC50 in the assay on HEK293 of 0.521 µM.
For `CC[C@@]1(O)C(=O)OCc2c1cc1n(c2=O)Cc2cc3c(NC(=O)CN)cccc3nc2-1`, the MIC in the assay with Staphylococcus aureus, in the assay with Escherichia coli, against Klebsiella pneumoniae, against Candida albicans, in the assay on Pseudomonas aeruginosa and with Acinetobacter baumannii was above 10 µM in each case. In addition, the MIC against Cryptococcus neoformans was above 10 µM. This molecule gave a CC50 with HEK293 of 0.6 µM.
For `Oc1c(CN2CCN(c3ccccc3)CC2)cc(Br)c2cccnc12`, the MIC against Staphylococcus aureus, in the assay on Escherichia coli, in the assay on Klebsiella pneumoniae, against Candida albicans, in the assay with Pseudomonas aeruginosa and against Acinetobacter baumannii was above 10 µM each time. This molecule also had an MIC with Cryptococcus neoformans above 10 µM. This molecule showed a CC50 in the assay with HEK293 above 10 µM.
`O=C(Nc1cccc(-c2nc3ccccc3[nH]2)c1)c1ccc(C(=O)Nc2cccc(-c3nc4ccccc4[nH]3)c2)cc1`: the MIC against Staphylococcus aureus, with Escherichia coli, with Klebsiella pneumoniae, with Candida albicans, with Pseudomonas aeruginosa and against Acinetobacter baumannii was above 10 µM each time. The same molecule registered an MIC in the assay with Cryptococcus neoformans above 10 µM. This molecule registered a CC50 with HEK293 above 10 µM.
For `O=Cc1ccc(O)c2ncccc12`, the MIC in the assay on Staphylococcus aureus was above 10 µM; against Escherichia coli it was above 10 µM; against Klebsiella pneumoniae it was above 10 µM; with Candida albicans, 0.625 µM (≈ 0.108 µg/mL); in the assay on Pseudomonas aeruginosa it was above 10 µM; against Acinetobacter baumannii, above 10 µM. This molecule also yielded an MIC with Cryptococcus neoformans of 1.25 µM (≈ 0.216 µg/mL). The molecule further returned a CC50 in the assay on HEK293 above 10 µM.
Turning to `Cn1c2ccccc2c2ccc3c(c21)C(=O)C=CC3=O`, the MIC in the assay on Staphylococcus aureus, in the assay on Escherichia coli, with Klebsiella pneumoniae, against Candida albicans, against Pseudomonas aeruginosa and in the assay on Acinetobacter baumannii was above 10 µM throughout. This molecule showed an MIC in the assay with Cryptococcus neoformans above 10 µM. Further, in the assay with HEK293, the CC50 is above 10 µM.
For the molecule `O=[N+]([O-])c1ccc(Sc2cccc[n+]2[O-])c2nonc12`, the MIC in the assay on Staphylococcus aureus is above 10 µM; with Escherichia coli it was above 10 µM; with Klebsiella pneumoniae, above 10 µM; in the assay on Candida albicans, 1.25 µM (≈ 0.363 µg/mL); in the assay with Pseudomonas aeruginosa, above 10 µM; in the assay with Acinetobacter baumannii it was above 10 µM. In the assay on Cryptococcus neoformans, this molecule yielded an MIC of 10 µM (≈ 2.9 µg/mL). The molecule also returned a CC50 with HEK293 of 2.53 µM.
Turning to `Oc1ccc2ccccc2c1/N=N/c1nccs1`, the MIC in the assay with Staphylococcus aureus is above 10 µM; in the assay on Escherichia coli, above 10 µM; against Klebsiella pneumoniae, above 10 µM; in the assay with Candida albicans, 10 µM (≈ 2.55 µg/mL); in the assay on Pseudomonas aeruginosa, above 10 µM; with Acinetobacter baumannii, above 10 µM. The MIC in the assay on Cryptococcus neoformans came out at 2.5 µM (≈ 0.638 µg/mL). Also, the CC50 with HEK293 is above 10 µM.
Consider `O=C1N=C(Nc2nc3ccccc3[nH]2)c2ccccc21`, for which the MIC in the assay with Staphylococcus aureus was above 10 µM; with Escherichia coli, above 10 µM; against Klebsiella pneumoniae, above 10 µM; against Candida albicans it was 10 µM (≈ 2.62 µg/mL); against Pseudomonas aeruginosa, above 10 µM; against Acinetobacter baumannii, above 10 µM. In the assay on Cryptococcus neoformans, this molecule returned an MIC above 10 µM. In the assay on HEK293, the CC50 was above 10 µM.
In the case of `COC1CC2\C=C(C)/C=C/C=C/C(=O)NC(c3ccccc3)C/C=C/CCC(O)CC(=O)C2=C1O` (configuration not stated), the MIC is 0.156 µM (≈ 0.0746 µg/mL) against Staphylococcus aureus; above 10 µM with Escherichia coli; above 10 µM with Klebsiella pneumoniae; 1.25 µM (≈ 0.597 µg/mL) against Candida albicans; above 10 µM in the assay with Pseudomonas aeruginosa; above 10 µM with Acinetobacter baumannii. The molecule also displayed an MIC with Cryptococcus neoformans of 5 µM (≈ 2.39 µg/mL). The same molecule returned a CC50 in the assay with HEK293 of 2.08 µM.

What is called CC50 is the concentration giving 50% cytotoxicity.

For the origin of these results see ChEMBL document CHEMBL4296182, “CO-ADD screening of NIH NCI Diversity Set V”.
